From patent publication US20030166004A1, “Endothelial-cell binding peptides for diagnosis and therapy” (priority 2001, published 2003)

Experiments:
HUVEC cells = test: HUVEC proliferation assay (FGF-stimulated); format: cell-based, human
Procedure: (§1) We performed proliferation assays to determine the effect of the synthetic EC binding peptides on the proliferation of endothelial cells. In these assays the proliferation of bovine capillary endothelial (BCE), human microvascular endothelial (HMVEC) and human vascular endothelial cells (HUVEC) was stimulated by FGF and VEGF165 as indicated on FIG. 4. The effect of increasing concentration of synthetic EC binding peptides was measured on the proliferation of the stimulated cells. After the 72 h incubation the media was removed, the plates were washed two times with PBS and frozen at −80° C. Proliferation of the BCE cells was accessed using the CyQUANT® fluorescent cell proliferation assay kit according to the manufacturer's recommendations.
(§2) In the MSA-peptide fusions the peptide sequence was inserted into a cysteine constrained loop between amino acids 53 and 62. […]
(§3) The transfected COS7-L cells were cultured in defined serum free media (VP-SFM). […] The concentration of the albumin proteins was determined by Western blot analysis of each preparation using a rabbit anti-MSA antibody and using purified MSA of known concentration to generate a standard curve. Following development of the blot and exposure to film the autoradiographs were analyzed using the Gel Doc 1000 image analysis system and Molecular Analyst software (BioRad).

[1] = tested on: bovine capillary endothelial cells (BCE); test: BCE proliferation assay (FGF-stimulated, CyQUANT); format: cell-based; conditions: 72 h
Procedure: as §1, §2
as §3, with “(BioRad). […]” for “(BioRad).”

MSA-myc: MSA with Myc epitope peptide EQKLISEEDL inserted between Glu 57 and Ser 58 (negative control)
inhibition of HUVEC proliferation (in words, active range) (HUVEC cells): did not significantly affect
inhibition of BCE proliferation (in words, active range) [1]: did not significantly affect

MSA: full-length mouse serum albumin (negative control)
inhibition of HUVEC proliferation (in words, active range) (HUVEC cells): did not significantly affect
inhibition of BCE proliferation (in words, active range) [1]: did not significantly affect
